≈ marks a conversion by molar mass, not a printed value. Where two headings read alike, the source gives them in different places.
Tested on: A. non-baumannii isolates (n = 87)
Test: MIC, broth microdilution (EUCAST), A. non-baumannii isolates
Type: cell-based, Acinetobacter spp. (non-baumannii)
Excerpt: The bacterial strains used in this study comprised 208 clinical isolates from the Spanish National Acinetobacter spp. 2020 Multicenter Collection, which was previously characterized in detail by our research group, including whole-genome sequencing, phylogenetics studies, clonal dynamics, and resistance mechanisms ([2], [29]). Additionally, a collection of A. baumannii ATCC 17978 transformants coding the blaOXA-23, blaOXA-24/40, blaOXA-51, blaOXA-58, blaOXA-143, and blaOXA-201 genes, previously constructed and described by our group ([30]), was used to determine the activity of enmetazobactam against strains carrying the main CHDLs of A. baumannii.
The antimicrobial susceptibility of the 208 Acinetobacter spp. isolates was assessed using the broth microdilution method, as described in the European Committee on Antimicrobial Susceptibility Testing (EUCAST) v.15 guidelines (http://www.eucast.org/clinical_breakpoints). […] MICs for enmetazobactam alone were assessed as well. […] Subsequently, MIC testing was also conducted with a collection of A. baumannii ATCC 17978 transformants expressing clinically relevant OXA-like carbapenemase genes.
The A. baumannii ATCC 19606 strain was used as the reference strain in all susceptibility experiments, in duplicate assays. Antibiotics were purchased from Sigma-Aldrich, except enmetazobactam and durlobactam, which were obtained from Advanz Pharma and MedChemExpress, respectively.

C[n+]1ccn(C[C@@]2(C)[C@H](C(=O)[O-])N3C(=O)C[C@H]3S2(=O)=O)n1 [enmetazobactam]
MIC distribution 0.12: 0 | MIC (Acinetobacter baylyi, isolate NO-Ab27, Acinetobacter baylyi, in combinations ETZ fixed at 8 mg/L, read-out: MIC): 2 µg/mL | MIC (Acinetobacter beijerinckii, isolate NO-Ab122, Acinetobacter beijerinckii, in combinations ETZ fixed at 8 mg/L, read-out: MIC): 2 µg/mL | MIC (Acinetobacter bereziniae, isolate NO-Ab70, Acinetobacter bereziniae, in combinations ETZ fixed at 8 mg/L, read-out: MIC): 1 µg/mL | MIC (Acinetobacter bereziniae, isolate NO-Ab84, Acinetobacter bereziniae, in combinations ETZ fixed at 8 mg/L, read-out: MIC): 1 µg/mL | MIC (Acinetobacter bereziniae, isolate NO-Ab104, Acinetobacter bereziniae, in combinations ETZ fixed at 8 mg/L, read-out: MIC): 1 µg/mL | MIC (Acinetobacter bereziniae, isolate NO-Ab114, Acinetobacter bereziniae, in combinations ETZ fixed at 8 mg/L, read-out: MIC): 1 µg/mL | MIC (Acinetobacter bereziniae, isolate NO-Ab115, Acinetobacter bereziniae, in combinations ETZ fixed at 8 mg/L, read-out: MIC): 1 µg/mL | MIC (Acinetobacter bereziniae, isolate NO-Ab116, Acinetobacter bereziniae, in combinations ETZ fixed at 8 mg/L, read-out: MIC): 1 µg/mL | MIC (Acinetobacter bereziniae, isolate NO-Ab117, Acinetobacter bereziniae, in combinations ETZ fixed at 8 mg/L, read-out: MIC): 2 µg/mL | MIC (Acinetobacter bereziniae, isolate NO-Ab129, Acinetobacter bereziniae, in combinations ETZ fixed at 8 mg/L, read-out: MIC): 1 µg/mL | MIC (Acinetobacter bereziniae, isolate NO-Ab156, Acinetobacter bereziniae, in combinations ETZ fixed at 8 mg/L, read-out: MIC): 4 µg/mL | MIC (Acinetobacter calcoaceticus, isolate NO-Ab85, Acinetobacter calcoaceticus, in combinations ETZ fixed at 8 mg/L, read-out: MIC): 4 µg/mL | MIC (Acinetobacter calcoaceticus, isolate NO-Ab94, Acinetobacter calcoaceticus, in combinations ETZ fixed at 8 mg/L, read-out: MIC): 2 µg/mL | MIC (Acinetobacter calcoaceticus, isolate NO-Ab108, Acinetobacter calcoaceticus, in combinations ETZ fixed at 8 mg/L, read-out: MIC): 4 µg/mL | MIC (Acinetobacter calcoaceticus, isolate NO-Ab161, Acinetobacter calcoaceticus, in combinations ETZ fixed at 8 mg/L, read-out: MIC): 8 µg/mL | MIC (Acinetobacter calcoaceticus, isolate NO-Ab198, Acinetobacter calcoaceticus, in combinations ETZ fixed at 8 mg/L, read-out: MIC): 4 µg/mL | MIC (Acinetobacter calcoaceticus, isolate NO-Ab205, Acinetobacter calcoaceticus, in combinations ETZ fixed at 8 mg/L, read-out: MIC): 4 µg/mL | MIC (Acinetobacter calcoaceticus, isolate NO-Ab211, Acinetobacter calcoaceticus, in combinations ETZ fixed at 8 mg/L, read-out: MIC): 4 µg/mL | MIC (Acinetobacter courvalinii, isolate NO-Ab216, Acinetobacter courvalinii, in combinations ETZ fixed at 8 mg/L, read-out: MIC): 1 µg/mL | MIC (Acinetobacter dispersus, isolate NO-Ab2, Acinetobacter dispersus, in combinations ETZ fixed at 8 mg/L, read-out: MIC): 2 µg/mL | MIC (Acinetobacter guillouiae, isolate NO-Ab69, Acinetobacter guillouiae, in combinations ETZ fixed at 8 mg/L, read-out: MIC): 2 µg/mL | MIC (Acinetobacter guillouiae, isolate NO-Ab74, Acinetobacter guillouiae, in combinations ETZ fixed at 8 mg/L, read-out: MIC): 2 µg/mL | MIC (Acinetobacter haemolyticus, isolate NO-Ab92, Acinetobacter haemolyticus, in combinations ETZ fixed at 8 mg/L): 1 µg/mL | MIC (Acinetobacter haemolyticus, isolate NO-Ab177, Acinetobacter haemolyticus, in combinations ETZ fixed at 8 mg/L): 1 µg/mL | MIC (Acinetobacter haemolyticus, isolate NO-Ab217, Acinetobacter haemolyticus, in combinations ETZ fixed at 8 mg/L): 0.5 µg/mL | MIC (Acinetobacter johnsonii, isolate NO-Ab101, Acinetobacter johnsonii, in combinations ETZ fixed at 8 mg/L, read-out: MIC): 4 µg/mL | MIC (Acinetobacter junii, isolate NO-Ab76, Acinetobacter junii, in combinations ETZ fixed at 8 mg/L, read-out: MIC): 2 µg/mL | MIC (Acinetobacter junii, isolate NO-Ab77, Acinetobacter junii, OXA-24/40, in combinations ETZ fixed at 8 mg/L, read-out: MIC): 2 µg/mL | MIC (Acinetobacter lactucae, isolate NO-Ab60, Acinetobacter dijkshoorniae, in combinations ETZ fixed at 8 mg/L, read-out: MIC): 4 µg/mL | MIC (Acinetobacter lactucae, isolate NO-Ab63, Acinetobacter dijkshoorniae, in combinations ETZ fixed at 8 mg/L, read-out: MIC): 4 µg/mL | MIC (Acinetobacter lactucae, isolate NO-Ab65, Acinetobacter dijkshoorniae, in combinations ETZ fixed at 8 mg/L, read-out: MIC): 4 µg/mL | MIC (Acinetobacter lactucae, isolate NO-Ab86, Acinetobacter dijkshoorniae, in combinations ETZ fixed at 8 mg/L, read-out: MIC): 2 µg/mL | MIC (Acinetobacter lactucae, isolate NO-Ab88, Acinetobacter dijkshoorniae, in combinations ETZ fixed at 8 mg/L, read-out: MIC): 2 µg/mL | MIC (Acinetobacter lactucae, isolate NO-Ab91, Acinetobacter dijkshoorniae, in combinations ETZ fixed at 8 mg/L, read-out: MIC): 2 µg/mL | MIC (Acinetobacter lactucae, isolate NO-Ab121, Acinetobacter dijkshoorniae, in combinations ETZ fixed at 8 mg/L, read-out: MIC): 2 µg/mL | MIC (Acinetobacter lactucae, isolate NO-Ab125, Acinetobacter dijkshoorniae, in combinations ETZ fixed at 8 mg/L, read-out: MIC): 1 µg/mL | MIC (Acinetobacter lactucae, isolate NO-Ab160, Acinetobacter dijkshoorniae, in combinations ETZ fixed at 8 mg/L, read-out: MIC): 4 µg/mL | MIC (Acinetobacter nosocomialis, isolate NO-Ab43, Acinetobacter nosocomialis, in combinations ETZ fixed at 8 mg/L, read-out: MIC): 2 µg/mL | MIC (Acinetobacter nosocomialis, isolate NO-Ab68, Acinetobacter nosocomialis, OXA-24/40, in combinations ETZ fixed at 8 mg/L, read-out: MIC): 16 µg/mL | MIC (Acinetobacter nosocomialis, isolate NO-Ab98, Acinetobacter nosocomialis, in combinations ETZ fixed at 8 mg/L, read-out: MIC): 2 µg/mL | MIC (Acinetobacter nosocomialis, isolate NO-Ab208, Acinetobacter nosocomialis, in combinations ETZ fixed at 8 mg/L, read-out: MIC): 2 µg/mL | MIC (Acinetobacter pittii, MBC set, isolate NO-Ab89, A. pittii, read-out: MIC): 2 µg/mL (≈ 6.36 µM) | MIC (Acinetobacter pittii, isolate NO-Ab59, Acinetobacter pittii, in combinations ETZ fixed at 8 mg/L, read-out: MIC): 2 µg/mL | MIC (Acinetobacter pittii, isolate NO-Ab66, Acinetobacter pittii, in combinations ETZ fixed at 8 mg/L, read-out: MIC): 2 µg/mL | MIC (Acinetobacter pittii, isolate NO-Ab73, Acinetobacter pittii, in combinations ETZ fixed at 8 mg/L, read-out: MIC): 2 µg/mL | MIC (Acinetobacter pittii, isolate NO-Ab75, Acinetobacter pittii, in combinations ETZ fixed at 8 mg/L, read-out: MIC): 2 µg/mL | MIC (Acinetobacter pittii, isolate NO-Ab78, Acinetobacter pittii, in combinations ETZ fixed at 8 mg/L, read-out: MIC): 2 µg/mL | MIC (Acinetobacter pittii, isolate NO-Ab82, Acinetobacter pittii, in combinations ETZ fixed at 8 mg/L, read-out: MIC): 2 µg/mL | MIC (Acinetobacter pittii, isolate NO-Ab89, Acinetobacter pittii, in combinations ETZ fixed at 8 mg/L, read-out: MIC): 2 µg/mL | MIC (Acinetobacter pittii, isolate NO-Ab90, Acinetobacter pittii, in combinations ETZ fixed at 8 mg/L, read-out: MIC): 2 µg/mL

— PMC12888861, “Antibacterial activity of enmetazobactam against Acinetobacter spp.: a molecular dissection of mechanism of action and resistance determinants” (Antimicrobial Agents and Chemotherapy, 2025)
